The nature of data set [1]: in vitro. As to conditions: rat, liver microsomes. A general note: Liver microsomes are vesicles of endoplasmic reticulum, rich in cytochrome P450 enzymes.
Description: Metabolic stability in rat liver microsomes assessed as compound remaining measured after 30 mins
Another data set in a line: physchem. As to conditions: 1-octanol/phosphate buffer, pH 7.4.
Data set [2] is described as follows: in vitro. As to conditions: human, liver microsomes.
Description: Metabolic stability in human liver microsomes assessed as compound remaining measured after 30 mins
Data set [3] in a line: Dissociation constant, pKa of the compound in DMSO solution by capillary electrophoresis. Type of data set: physicochemical.
The subject of data set [4] is Rattus norvegicus. Description: Induction of dialysate dopamine level in male Wistar rat prefrontal cortex at 10 mg/kg, sc measured upto 120 mins after treatment by microdialysis study. The class given is functional, organism-based.
The subject of data set [5] is Rattus norvegicus. Description: Antipsychotic efficacy against MK-801-induced locomotor hyperactivity rat model assessed as reduction in locomotor activity at 30 mg/kg, sc pretreated for 45 mins before MK-801 challenge measured after 15 mins. Type of data set: functional, organism-based. To be noted: time 60.0 min.
Data set [6] has as its system Rattus norvegicus. Nature of the data set: Induction of dialysate dopamine level in male Wistar rat prefrontal cortex at 30 mg/kg, sc measured upto 120 mins after treatment by microdialysis study. The class given is functional, organism-based.
In data set [7] the test system is Rattus norvegicus. Description: In vivo receptor occupancy at 5-HT2A receptor in sc dosed Wistar rat brain in presence of MDL-100907 non-radiolabeled tracer measured pretreated for 45 mins before MDL-100907 challenge measured after 15 mins. The class given is functional, organism-based. As to conditions: dose 0.1-30 mg/kg, time 60.0 min.
In data set [8] the test system is Rattus norvegicus. Description: Induction of dialysate dopamine level in male Wistar rat prefrontal cortex at 3 mg/kg, sc measured upto 120 mins after treatment by microdialysis study. The class given is functional, organism-based.
Data set [9] has as its system Rattus norvegicus. Nature of the data set: Induction of dialysate dopamine level in male Wistar rat prefrontal cortex at 3 to 10 mg/kg, sc measured upto 120 mins after treatment by microdialysis study. Type of data set: functional, organism-based. To be noted: dose 3-10 mg/kg.

Molecules are shown by their SMILES. The source made the active and inactive calls. No cut-off for these calls is given here.

On to `CC(C)COc1ccc(CNC(=O)N(Cc2ccc(F)cc2)[C@H]2CCN(C)CC23CC3)cc1`, for which the amount remaining at 0.5 h in the data set “in vitro [1]” and in the data set “in vitro [2]” was 48% each time. Besides, the logD – broadly, lipophilicity at a set pH, counting ionised and neutral species – in “physchem” came out at 3. The same compound came in with a pKa in data set [3] of 8.7.

Consider `CC(C)COc1ccc(CNC(=O)N(Cc2ccc(F)cc2)[C@H]2CCN(C)C[C@H]2F)cc1`, for which the amount remaining at 0.5 h in “in vitro [1]” was 27%; in “in vitro [2]”, 34%. The same compound displayed a logD in “physchem” of 4. In addition, in [3], the pKa was found to be 7.2.

As for `CCCOc1ccc(CNC(=O)N(Cc2ccn(C)n2)C2CCN(C)CC2)cc1`, the fraction remaining at 0.5 h was found to be 92% in the data set “in vitro [1]” and 102% in “in vitro [2]”. In addition, the logD in the data set “physchem” was 1.2.

As for `CC(C)COc1ccc(CNC(=O)N(Cc2ccc(F)cc2)[C@H]2CCN(C)C[C@@H]2F)cc1`, the fraction remaining at 0.5 h came to 6.1% in the data set “in vitro [1]” and 7.9% in “in vitro [2]”. Moreover, in “physchem”, the log distribution coefficient (logD) worked out at 4.9. Also, the pKa in [3] worked out at 6.2.

With `CC(C)COc1ccc(CNC(=O)N(Cc2ccc(F)cn2)[C@H]2CCN(C)CC23CC3)cc1`, the figures for the share remaining at 0.5 h in the data set “in vitro [1]” and in “in vitro [2]” were 64% and 68%, respectively. In “physchem”, this compound showed a logD of 2.5.

For the compound `CC(C)COc1ccc(CNC(=O)N(Cc2ccc(F)cc2)C2CCN(C)CC2)cc1` [PIMAVANSERIN], the result in the data set on Rattus norvegicus [4] and in the data set with Rattus norvegicus [8] was inactive. Further, the outcome in the data set on Rattus norvegicus [5] and in the data set with Rattus norvegicus [6] was Active. Besides, the share remaining at 0.5 h in the data set “in vitro [1]” came out at 90%; in “in vitro [2]”, 89%. Also, the pH-dependent lipophilicity (logD) in the data set “physchem” came to 2.8. The Activity result in the data set on Rattus norvegicus [7] was “Dose-Dependent Effect”. The same compound had a pKa in data set [3] of 8.4.

As to `CC(C)COc1ccc(CNC(=O)N(Cc2ccn(C)n2)[C@H]2CCN(C)CC23CC3)cc1`, the fraction remaining at 0.5 h worked out at 47% in “in vitro [1]” and 88% in the data set “in vitro [2]”. In the data set “physchem”, the log distribution coefficient (logD) was 1.7.

For the compound `Cc1cc2c(cc1Cl)N(C(=O)Nc1ccc(Oc3cccnc3C)nc1)CC2`, the outcome in the data set on Rattus norvegicus [9] was Active.
